Source: patent US20260209220A1, “SUBSTITUTED TETRAHYDROPYRROLO-PYRIDINONE COMPOUNDS AND THEIR USE IN TREATING MEDICAL CONDITIONS” (Karuna Therapeutics, Inc., priority 2022, published 2026)

Columns and labels:
rM4 receptors = target: T1, rM4 receptors (Rattus norvegicus, UniProt P08485); assay: Rat M4 PAM PERK assay (CHO cells, TR-FRET, with EC20 acetylcholine); format: cell-based
T1 construct: expressed in transfected cells; host or cells: CHO cells
T1 sequence (P08485 1-478): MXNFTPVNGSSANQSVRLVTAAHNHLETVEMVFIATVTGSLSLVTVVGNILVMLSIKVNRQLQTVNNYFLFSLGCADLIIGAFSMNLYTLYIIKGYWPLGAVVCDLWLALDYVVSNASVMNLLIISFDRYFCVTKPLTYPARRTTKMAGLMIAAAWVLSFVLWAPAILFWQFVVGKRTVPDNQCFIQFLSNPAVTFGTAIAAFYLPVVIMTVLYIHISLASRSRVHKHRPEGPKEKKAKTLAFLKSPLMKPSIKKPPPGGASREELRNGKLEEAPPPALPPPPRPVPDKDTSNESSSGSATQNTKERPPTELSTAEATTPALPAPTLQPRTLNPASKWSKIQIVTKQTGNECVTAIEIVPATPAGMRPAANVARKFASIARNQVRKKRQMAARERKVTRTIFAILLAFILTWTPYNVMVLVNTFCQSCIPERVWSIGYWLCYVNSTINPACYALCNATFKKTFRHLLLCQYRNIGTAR
Procedure: (§1) Chinese hamster ovary (CHO) cells expressing either hM4 or rM4 receptors were frozen in assay ready vials (5×10^6 cells/vial) after bulking-up in culture. The day before an assay, vial(s) were thawed and cells seeded in 384 well white proxiplates at 1000/well for hM4 cells and at 2000/well for rM4 cells, in 10 μL of growth media (Hams/F12 with glutamax and 10% FCS) and incubated overnight at 37° C./5% CO2.
(§2) On the following morning, the growth media was removed by ‘flicking out’ over a bin, patting the inverted plate onto tissue, and then replacing with 10 μL of wash media (Hams/F12 with glutamax and 8 mM HEPES, NB: serum free). Then, the wash media was removed in the same way and replaced with 8 μL/well of the serum free media. Plates were then re-incubated for a further 4 hours at 37° C./5% CO2.
(§3) Compounds for testing were solubilized to 10 mM in DMSO and compound addition plates, consisting of ten-point concentration response curves (CRC) in duplicate points (10 μM top concentration, ½ log dilution series), were prepared by acoustic dispensing and the compound management group.
(§4) After the 4-hour incubation in serum free media, a 4 μL aliquot of the 3×compound solution containing an EC20 of acetylcholine (10 nM final concentration) was added to the cell plate using a 384 well plate to plate transfer. Then, the plate lid was replaced, and the cells incubated for 5 mins at 37° C./5% CO2. Following this final incubation, all cellular processes were stopped by the addition of 4 μL/well of lysis and blocking buffer and plates were incubated for 30 minutes at RT on an orbital shaker (gentle setting). Then, a final addition of 4 μL/well of antibody detection mix, containing both the Europium-Cryptate (donor) and d2 (acceptor) tagged detection components, was added followed by a further 2-hour incubation at RT, and then the plate was read using a TR-FRET (time resolved fluorescence resonance energy transfer) based protocol.

hM4 receptors = target: T2, hM4 receptors (Homo sapiens, UniProt P08173); assay: Human M4 PAM PERK assay (CHO cells, TR-FRET, with EC20 acetylcholine); format: cell-based
T2 construct: expressed in transfected cells; host or cells: CHO cells
T2 sequence (P08173 1-479): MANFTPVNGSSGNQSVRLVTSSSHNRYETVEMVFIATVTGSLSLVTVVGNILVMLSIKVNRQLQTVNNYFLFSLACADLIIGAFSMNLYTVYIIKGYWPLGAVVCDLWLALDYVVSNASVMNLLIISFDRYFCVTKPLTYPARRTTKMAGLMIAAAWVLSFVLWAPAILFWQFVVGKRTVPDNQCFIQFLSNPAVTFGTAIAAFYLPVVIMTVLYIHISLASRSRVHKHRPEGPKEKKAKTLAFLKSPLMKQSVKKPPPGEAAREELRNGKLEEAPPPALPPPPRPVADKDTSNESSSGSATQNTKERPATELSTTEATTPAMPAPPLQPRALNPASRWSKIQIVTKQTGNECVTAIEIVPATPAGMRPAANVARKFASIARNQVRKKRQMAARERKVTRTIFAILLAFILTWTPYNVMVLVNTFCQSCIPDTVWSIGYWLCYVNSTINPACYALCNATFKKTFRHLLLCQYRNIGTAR
Procedure: as §1, §2, §3, §4

human M4 receptor = target: T3, human M4 receptor (Homo sapiens, UniProt P08173); assay: M4 GTPγS PAM assay (CHO-K1 membranes, 35S-GTP binding, with EC20 acetylcholine); format: biochemical; settings: with EC20 acetylcholine (40 nM)
T3 construct: expressed in transfected cells; host or cells: CHO-K1 cells (membranes)
T3 sequence (P08173 1-479): T2 sequence (P08173 1-479)
Procedure: The M4 GTPγS PAM method was used. Membranes were prepared for GTPgS binding assays from CHO-K1 cells stably expressing human M4 receptor. Briefly, cells were grown in 5-layer cell culture flasks. Cells were washed with 50 mL of PBS and then dissociated with 0.05% trypsin. Dissociated cells were then collected by centrifugation at 650×g for 8 minutes at 4° C. Pellets were washed again in PBS by centrifugation and resuspended in 30 mL of 20 mM HEPES, 10 mM EDTA, pH 7.4. After sitting on ice for 30 min, membranes were collected by centrifugation at 50000×g for 15′ at 4° C., resuspended in 30 mL of 20 mM HEPES, 0.1 mM EDTA, pH 7.4 and collected again by centrifugation. Pellets were then washed twice by centrifugation in 30 mL of 20 mM HEPES, pH 7.4, and stored at −80° C. until the day of the assay. On the day of the assay, pellets were thawed on ice and resuspended in 1 mL of 20 mM HEPES, pH 7.4, 10 mM MgCl2, 100 mM NaCl using dounce homogenization. Membrane protein concentration is determined by BCA protein assay (Promega, Madison, WI) according to Promega guidelines.
On the day of the assay, serial dilutions of test PAM compounds were brought up in assay buffer (20 mM HEPES, 10 mM MgCl2, 100 mM NaCl) at 4X final assay concentration. […] of membrane homogenates (containing […] of membrane protein) were prepared in assay buffer supplemented with GDP at […] final assay concentration (final assay concentration of GDP is 5 μM for M2 and 0.1 μM for M4) and dispensed into 96 well polypropylene, U-bottom Greiner plates. 25 ml of vehicle or test PAM compound at 4× of final assay concentration diluted in the assay buffer were added to membrane and plates are incubated for 10-15 minutes at room temperature with gentle shaking. Then, […] of EC20 acetylcholine in assay buffer at 4× final assay concentration was added to assay plates (EC20 final assay concentrations was 40 nM for human M4).
Plates were then incubated, with shaking, for an additional 10-15 minutes. […] of 0.4 nM 35S-GTP (Perkin Elmer, Waltham, MA) in assay buffer was added to assay mixtures. The binding reaction is left on the shaker for 1 hour at room temperature. Membranes in assay reactions were then transferred to GF/C filter plates (Unifilter, Perkin Elmer) and washed three times using a FilterMate Harvester (Perkin Elmer) with cold assay buffer containing no GDP. Filter plates were then dried at 40° C. overnight followed by the addition of […] of Beta Plate Scintillation liquid. Plates are top and bottom sealed before being read on TopCount scintillation counter (Perkin Elmer, Waltham, MA).

Row | Compound | EC50 (rM4 receptors) | EC50 (hM4 receptors) | EC50 (human M4 receptor)
1 | COc1cccc(N2CC(CC(=O)N3Cc4c(C)cc(=O)n(C)c4C3)C2)c1 [Compound I-7] | 50 to 200 nM | 200 to 1000 nM | 200 to 1000 nM
2 | Cc1cc(=O)n(C)c2c1CN(C(=O)C(C)(C)C1CN(c3ccnc(C(F)(F)F)c3)C1)C2 [Compound I-41, 1,4-Dimethyl-6-(2-methyl-2-(1-(2-(trifluoromethyl)pyridin-4-yl)azetidin-3-yl)propanoyl)-1,5,6,7-tetrahydro-2H-pyrrolo[3,4-b]pyridin-2-one] |  | > 1000 nM | > 1000 nM
3 | Cc1c2c(n(C)c(=O)c1Cl)CN(C(=O)CC1CN(c3ccccc3)C1)C2 [Compound I-71] | 200 to 1000 nM | < 50 nM | 
4 | Cc1cc(=O)n(C2CC2)c2c1CN(C(=O)CC1CN(c3ccnc(C(F)(F)F)c3)C1)C2 [Compound I-103, 1-Cyclopropyl-4-methyl-6-(2-(1-(2-(trifluoromethyl)pyridin-4-yl)azetidin-3-yl)acetyl)-1,5,6,7-tetrahydro-2H-pyrrolo[3,4-b]pyridin-2-one] | > 1000 nM | 200 to 1000 nM | 
5 | Cc1c2c(n(C)c(=O)c1C)CN(C(=O)CC1CN(c3ccc(CC(C)(C)O)c(F)c3)C1)C2 [Compound I-57] | 50 to 200 nM | < 50 nM | 
6 | Cc1c2c(n(C)c(=O)c1C1CC1)CN(C(=O)CC1CN(c3ccnc(C(F)(F)F)c3)C1)C2 [Compound I-109, 3-Cyclopropyl-1,4-dimethyl-6-(2-(1-(2-(trifluoromethyl)pyridin-4-yl)azetidin-3-yl)acetyl)-1,5,6,7-tetrahydro-2H-pyrrolo[3,4-b]pyridin-2-one] | 200 to 1000 nM | 50 to 200 nM | 
7 | COc1c2c(n(C)c(=O)c1C)CN(C(=O)CC1CN(c3ccnc(C(F)(F)F)c3)C1)C2 [Compound I-97, 4-Methoxy-1,3-dimethyl-6-(2-(1-(2-(trifluoromethyl)pyridin-4-yl)azetidin-3-yl)acetyl)-1,5,6,7-tetrahydro-2H-pyrrolo[3,4-b]pyridin-2-one] | 200 to 1000 nM | < 50 nM | 
8 | Cc1c2c(n(C)c(=O)c1C#N)CN(C(=O)CC1CN(c3ccnc(C(F)(F)F)c3)C1)C2 [Compound I-111, 1,4-Dimethyl-2-oxo-6-(2-(1-(2-(trifluoromethyl)pyridin-4-yl)azetidin-3-yl)acetyl)-2,5,6,7-tetrahydro-1H-pyrrolo[3,4-b]pyridine-3-carbonitrile] | 200 to 1000 nM | 50 to 200 nM | 
9 | Cc1c2c(n(C)c(=O)c1F)CN(C(=O)CC1CN(c3ccnc(C(F)(F)F)c3)C1)C2 [Compound I-84, 3-Fluoro-1,4-dimethyl-6-(2-(1-(2-(trifluoromethyl)pyridin-4-yl)azetidin-3-yl)acetyl)-1,5,6,7-tetrahydro-2H-pyrrolo[3,4-b]pyridin-2-one] | 50 to 200 nM | < 50 nM | 
10 | Cc1c2c(n(C)c(=O)c1Cl)CN(C(=O)C(C)C1CN(c3ccnc(C(F)(F)F)c3)C1)C2 (single isomer, unassigned) [Compound I-83, 3-Chloro-1,4-dimethyl-6-(2-(1-(2-(trifluoromethyl)pyridin-4-yl)azetidin-3-yl)propanoyl)-1,5,6,7-tetrahydro-2H-pyrrolo[3,4-b]pyridin-2-one] | > 1000 nM | > 1000 nM | 
11 | Cc1cc(=O)n(C)c2c1CN(C(=O)CC1CN(c3ccccn3)C1)C2 [Compound I-9] | 200 to 1000 nM | < 50 nM | 
12 | Cc1cc(=O)n(C)c2c1C(C)N(C(=O)CC1CN(c3ccnc(C(F)(F)F)c3)C1)C2 (stereo not shown) [Compound I-114] | 50 to 200 nM | < 50 nM | 
13 | Cc1c2c(n(C)c(=O)c1Br)CN(C(=O)CC1CN(c3ccnc(C(F)(F)F)c3)C1)C2 [Compound I-110, 3-Bromo-1,4-dimethyl-6-(2-(1-(2-(trifluoromethyl)pyridin-4-yl)azetidin-3-yl)acetyl)-1,5,6,7-tetrahydro-2H-pyrrolo[3,4-b]pyridin-2-one] | 200 to 1000 nM | < 50 nM | 
14 | Cc1cc(=O)n(C)c2c1CN(C(=O)CC1CN(c3cc(C4CC4)c(C#N)c(C(F)(F)F)c3)C1)C2 [Compound I-40, 2-Cyclopropyl-4-(3-(2-(1,4-dimethyl-2-oxo-1,2,5,7-tetrahydro-6H-pyrrolo[3,4-b]pyridin-6-yl)-2-oxoethyl)azetidin-1-yl)-6-(trifluoromethyl)benzonitrile] | 200 to 1000 nM | 200 to 1000 nM | 
15 | Cc1cc(=O)n(C)c2c1CN(C(=O)CC1CN(c3cnnc(C4CC4)c3)C1)C2 [Compound I-38, 6-(2-(1-(6-Cyclopropylpyridazin-4-yl)azetidin-3-yl)acetyl)-1,4-dimethyl-1,5,6,7-tetrahydro-2H-pyrrolo[3,4-b]pyridin-2-one] | 200 to 1000 nM | 50 to 200 nM | 
16 | Cc1cc(=O)n(C)c2c1CN(C(=O)CC1CN(c3ccnc(C(F)(F)F)c3)C1)C2 [Compound I-1, 1,4-Dimethyl-6-(2-(1-(2-(trifluoromethyl)pyridin-4-yl)azetidin-3-yl)acetyl)-1,5,6,7-tetrahydro-2H-pyrrolo[3,4-b]pyridin-2-one] | 200 to 1000 nM | < 50 nM | 
17 | COc1cc(N2CC(CC(=O)N3Cc4c(C)c(Cl)c(=O)n(C)c4C3)C2)ccn1 [Compound I-77] | 200 to 1000 nM | < 50 nM | 
18 | Cc1c2c(n(CC(F)(F)F)c(=O)c1Cl)CN(C(=O)CC1CN(c3cccnc3)C1)C2 [Compound I-93, 3-Chloro-4-methyl-6-(2-(1-(pyridin-3-yl)azetidin-3-yl)acetyl)-1-(2,2,2-trifluoroethyl)-1,5,6,7-tetrahydro-2H-pyrrolo[3,4-b]pyridin-2-one] | 50 to 200 nM | 50 to 200 nM | 
